Laboratory results: US20250176599A1, “FLAVOR COMPOSITION AND FOOD AND BEVERAGE” (TAKASAGO INTERNATIONAL CORPORATION, priority 2021, published 2025)

Legend:
[1] = Sensory evaluation of aqueous solution I containing (E)-2-nonenal 1 ppb: off-flavor intensity and masking component intensity; settings: (E)-2-nonenal 1 ppb, average score 0-4
In short: (§1)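 Nootkatone was added to ion-exchanged water spiked with the degradation component, and eight experienced panelists scored the samples. Off-flavor was rated relative to anchors: unmasked spiked solution = 4, plain water = 0. Masking-component intensity was rated absolutely on a 0–4 scale.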

[2] = Overall conclusion of the sensory evaluation across aqueous solutions I to VI
In short: as §1

[3] = Sensory evaluation of aqueous solution V containing 1-octen-3-ol 10 ppb: off-flavor intensity and masking component intensity; settings: 1-octen-3-ol 10 ppb, average score 0-4
In short: as §1

[4] = Sensory evaluation of aqueous solution VI containing 1,5-octadien-3-ol 10 ppb: off-flavor intensity and masking component intensity; settings: aqueous solution VI, 1,5-octadien-3-ol 10 ppb, average score 0-4
In short: as §1

[5] = Sensory evaluation of aqueous solution IV containing 1,5-octadien-3-one 100 ppt: off-flavor intensity and masking component intensity; settings: aqueous solution IV, 1,5-octadien-3-one 100 ppt, average score 0-4
In short: as §1

[6] = Sensory evaluation of aqueous solution II containing (E)-2-octenal 10 ppb: off-flavor intensity and masking component intensity; settings: (E)-2-octenal 10 ppb, average score 0-4
In short: as §1

[7] = Sensory evaluation of aqueous solution III containing 1-octen-3-one 1 ppb: off-flavor intensity and masking component intensity; settings: 1-octen-3-one 1 ppb, average score 0-4
In short: as §1

SMILES: CC(=O)/C=C/C1C(C)=CCCC1(C)C (stereo not drawn) [α-Ionone, α-ionone]
- Off-Flavor Intensity ([1]; 0.1 ppt added): 3.9 points
- Off-Flavor Intensity ([1]; 1 ppb added): 2.3 points
- Off-Flavor Intensity ([1]; 1 ppm added): 0.6 points
- Off-Flavor Intensity ([1]; 1 ppt added): 3.6 points
- Off-Flavor Intensity ([1]; 10 ppb added): 1.8 points
- Off-Flavor Intensity ([1]; 10 ppm added): 0.3 points
- Off-Flavor Intensity ([1]; 10 ppt added): 3.1 points
- Off-Flavor Intensity ([1]; 100 ppb added): 1.3 points
- Off-Flavor Intensity ([1]; 100 ppt added): 2.6 points
- concentration that masks the off-flavor and does not affect the flavor of the food and/or beverage itself, lower limit [2]: ≥ 1 ppt
- concentration that masks the off-flavor and does not affect the flavor of the food and/or beverage itself, upper limit [2]: ≤ 100 ppb
- Off-Flavor Intensity ([3]; 0.1 ppt added): 3.1 points
- Off-Flavor Intensity ([3]; 1 ppb added): 1.9 points
- Off-Flavor Intensity ([3]; 1 ppm added): 0.5 points
- Off-Flavor Intensity ([3]; 1 ppt added): 3.0 points
- Off-Flavor Intensity ([3]; 10 ppb added): 1.5 points
- Off-Flavor Intensity ([3]; 10 ppm added): 0.0 points
- Off-Flavor Intensity ([3]; 10 ppt added): 2.5 points
- Off-Flavor Intensity ([3]; 100 ppb added): 1.0 points
- Off-Flavor Intensity ([3]; 100 ppt added): 2.3 points
- Off-Flavor Intensity ([4]; 0.1 ppt added): 3.1 points
- Off-Flavor Intensity ([4]; 1 ppb added): 1.8 points
- Off-Flavor Intensity ([4]; 1 ppm added): 0.1 points
- Off-Flavor Intensity ([4]; 1 ppt added): 2.9 points
- Off-Flavor Intensity ([4]; 10 ppb added): 1.5 points
- Off-Flavor Intensity ([4]; 10 ppm added): 0.0 points
- Off-Flavor Intensity ([4]; 10 ppt added): 2.5 points
- Off-Flavor Intensity ([4]; 100 ppb added): 0.8 points
- Off-Flavor Intensity ([4]; 100 ppt added): 2.0 points
- Off-Flavor Intensity ([5]; 0.1 ppt added): 3.5 points
- Off-Flavor Intensity ([5]; 1 ppb added): 2.4 points
- Off-Flavor Intensity ([5]; 1 ppm added): 1.0 points
- Off-Flavor Intensity ([5]; 1 ppt added): 3.4 points
- Off-Flavor Intensity ([5]; 10 ppb added): 2.1 points
- Off-Flavor Intensity ([5]; 10 ppm added): 0.1 points
- Off-Flavor Intensity ([5]; 10 ppt added): 3.1 points
- Off-Flavor Intensity ([5]; 100 ppb added): 1.6 points
- Off-Flavor Intensity ([5]; 100 ppt added): 2.9 points
- Off-Flavor Intensity ([6]; 0.1 ppt added): 3.1 points
- Off-Flavor Intensity ([6]; 1 ppb added): 1.9 points
- Off-Flavor Intensity ([6]; 1 ppm added): 0.1 points
- Off-Flavor Intensity ([6]; 1 ppt added): 2.9 points
- Off-Flavor Intensity ([6]; 10 ppb added): 1.5 points
- Off-Flavor Intensity ([6]; 10 ppm added): 0.0 points
- Off-Flavor Intensity ([6]; 10 ppt added): 2.5 points
- Off-Flavor Intensity ([6]; 100 ppb added): 0.8 points
- Off-Flavor Intensity ([6]; 100 ppt added): 2.4 points
- Off-Flavor Intensity ([7]; 0.1 ppt added): 3.6 points
- Off-Flavor Intensity ([7]; 1 ppb added): 2.4 points
- Off-Flavor Intensity ([7]; 1 ppm added): 0.8 points
- Off-Flavor Intensity ([7]; 1 ppt added): 3.4 points
- Off-Flavor Intensity ([7]; 10 ppb added): 1.9 points
- Off-Flavor Intensity ([7]; 10 ppm added): 0.1 points
- Off-Flavor Intensity ([7]; 10 ppt added): 3.0 points
- Off-Flavor Intensity ([7]; 100 ppb added): 1.6 points
- Off-Flavor Intensity ([7]; 100 ppt added): 2.8 points
